Measured values taken from patent US11660258B2, “Alcohol containing non-antimicrobial cleansing composition” (GOJO Industries, Inc., priority 2017, dated 2023).

Columns and labels:
human skin [1] = experiment: Forearm controlled application test (FCAT), skin hydration by Corneometer
Description: (§1) Topical compositions were tested on skin samples for their ability to improve or maintain skin hydration and limit transepidermal water loss (TEWL). Measurement of the TEWL, expressed in grams per square meter and per hour, is used for studying the water barrier function of the human skin. The more perfect the skin protective coat, the higher the water content and the lower the TEWL. For each of the tests, a negative control was used, which included treatment with 8% SLS. An untreated skin sample was also tested for comparison. The tests were performed using the forearm controlled application test (FCAT) methodology. The various samples were applied to test sites on a forearm over the course of several days. On each day, up to six applications were made and the change in TEWL and hydration levels were recorded. The hydration levels were measured using a Corneometer® based on capacitance measurement of a dielectric medium. The Corneometer® measures the change in the dielectric constant due to skin surface hydration changing the capacitance of a precision capacitor. The measurement can detect even slight changes in the hydration level.
(§2) The compositions that were tested include the following, in weight %, based on the weight of the total composition: […]

human skin [2] = experiment: Forearm controlled application test (FCAT), transepidermal water loss (TEWL)
Description: as §1, §2

[3] = Example 2, wet and dry application, after 3 and 5 days of treatment

CCCCCCCCCCCCOS(=O)(=O)[O-].[Na+] [negative control, sodium lauryl sulfate]
hydration levels (change vs baseline) (human skin [1]; Example 1, FIG. 5, up to six applications per day over several days): lowest hydration levels | change in hydration levels (human skin [1]; [3]): significant reduction in hydration level | TEWL (change vs baseline) (human skin [2]; Example 1, FIG. 6, up to six applications per day over several days): highest TEWL | change in TEWL (human skin [2]; [3]): significant TEWL
